Ends that are not written are not given here.

Experimental findings from paper PMC9184620, “TAS1553, a small molecule subunit interaction inhibitor of ribonucleotide reductase, exhibits antitumor activity by causing DNA replication stress” (Communications Biology, 2022) are described below.

The target of one assay is T1, human R1 (Homo sapiens, UniProt P23921).
T1 construct: made in house; host or cells: Escherichia coli
T1 sequence (P23921 1-792): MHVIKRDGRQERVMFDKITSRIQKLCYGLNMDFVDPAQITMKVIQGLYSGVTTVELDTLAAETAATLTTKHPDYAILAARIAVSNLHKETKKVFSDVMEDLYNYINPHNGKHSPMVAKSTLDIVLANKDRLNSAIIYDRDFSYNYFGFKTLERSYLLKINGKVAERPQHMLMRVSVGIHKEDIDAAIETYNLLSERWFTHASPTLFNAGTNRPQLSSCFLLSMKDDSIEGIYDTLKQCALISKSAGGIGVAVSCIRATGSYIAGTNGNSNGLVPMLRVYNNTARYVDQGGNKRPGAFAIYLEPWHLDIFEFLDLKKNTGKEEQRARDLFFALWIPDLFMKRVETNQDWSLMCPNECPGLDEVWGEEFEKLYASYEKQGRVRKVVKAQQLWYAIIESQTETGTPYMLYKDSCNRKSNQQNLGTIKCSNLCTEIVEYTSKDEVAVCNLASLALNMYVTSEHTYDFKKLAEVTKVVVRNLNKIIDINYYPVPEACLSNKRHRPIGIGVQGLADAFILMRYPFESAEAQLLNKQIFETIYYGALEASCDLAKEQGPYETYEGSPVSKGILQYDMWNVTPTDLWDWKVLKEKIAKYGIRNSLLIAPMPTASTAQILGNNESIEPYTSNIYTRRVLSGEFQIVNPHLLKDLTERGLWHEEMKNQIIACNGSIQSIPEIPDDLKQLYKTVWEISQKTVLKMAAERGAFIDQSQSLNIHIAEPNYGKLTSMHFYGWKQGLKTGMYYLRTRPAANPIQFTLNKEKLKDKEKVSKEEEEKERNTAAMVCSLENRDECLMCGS
Nature of the assay: Fluorescence polarization binding assay (displacement of TAMRA-labeled P7 from R1). The text has this: Fig. 1 Design and identification of the small molecule compound TAS1553 blocking the interaction between RNR subunits. a A schematic representation of the fluorescent polarization binding assay. TAMRA-labeled P7 heptapeptide was used as a probe. […] Data are presented as mean ± SD obtained from three independent experiments. c Chemical structures of compound 1 and TAS1553. d Superposition of the X-ray co-crystal structure of human RRM1 (green) with compound 1 (magenta) (PDB ID: 6L3R) to the previously determined X-ray co-crystal structure of Saccharomyces cerevisiae RNR1 (cyan) with P7 peptide (yellow) (PDB ID: 2ZLF). The residue numbers and protein surface shown here are those of hRRM1. e SPR analysis for the binding of TAS1553 to human R1 captured onto Series S Sensor Chip NTA. […] IC50 (mean ± SD) is determined from three independent experiments performed in triplicate.
TAMRA-labeled P7 peptide was obtained from Peptide Institute, Inc. to be used as a fluorescent probe in the FP binding assay. The final reaction mixture was composed of 50 mmol/L Tris-Cl (pH 8.0), 10 mmol/L DTT, 10 nmol/L TAMRA-P7, 32 ng/mL His-R1, and 1% DMSO with or without test compound. The assay was performed for 120 min at room temperature with protection from light, after which FP of each sample was measured with a PHERAstarFS. IC50 values were calculated using the SAS software package in EXSUS (CAC Croit).
A general note: In fluorescence polarisation assays a small probe gives low polarisation when free and higher when bound to something large.

The subject of another assay is MV-4-11 xenograft. Nature of the assay: Antitumor activity in rats bearing MV-4-11 xenografts. It is filed as in vivo. The conditions noted are these: 32 mg/kg intravenously for 5 consecutive days. As for the experimental part:
(§1) Next, we evaluated the antitumor activity of a high-dose administration of TAS1553 and cytarabine in rats bearing MV-4-11 xenografts. […] The rats were treated with cytarabine for 5 days at 16 and 32 mg/kg. […] In addition to the hematologic tumor, we evaluated the antitumor activity of TAS1553 in mice implanted with HCC38 cell line as a solid tumor model. […] Finally, TAS1553 was evaluated for its survival benefit in a mouse model. To achieve this, we established mice bone marrow cells harboring the human MLL-AF9 fusion gene, which is known as a driver gene for AML in humans as well as mice[48].
For the subcutaneous implantation model of MV-4-11, F344/NJcl-rnu/rnu rats were irradiated with X-ray (4 Gy) to improve the efficiency of xenograft implantation. Two days after X-ray irradiation, MV-4-11 cells suspended in PBS with 50 vol% Matrigel were inoculated into the rats (2 × 10^7 cells/animal). In the mice subcutaneous implantation model, HCC38 cells suspended same as above were inoculated into male BALB/cAJcl-nu/nu mice (1 × 10^7 cells /body). […] Antitumor activity and body weight change were evaluated as previously reported. Dunnett test using the SAS software package in EXSUS (CAC Croit) was used to compare the tumor volume (P < 0.05).

The subject of the next assay is HCC38 xenograft. The assay can be described thus: Antitumor activity in mice bearing HCC38 xenografts. It is filed as in vivo, mouse. The following applies: 20 mg/kg intravenously once a week. As to the method: as §1, with “mice[48]. Mice were transplanted with the cells through the tail vein and the treatment with TAS1553 was started 11 days post-implantation.” for “mice[48].”
For the subcutaneous implantation model of MV-4-11, F344/NJcl-rnu/rnu rats were irradiated with X-ray (4 Gy) to improve the efficiency of xenograft implantation. Two days after X-ray irradiation, MV-4-11 cells suspended in PBS with 50 vol% Matrigel were inoculated into the rats (2 × 10^7 cells/animal). In the mice subcutaneous implantation model, HCC38 cells suspended same as above were inoculated into male BALB/cAJcl-nu/nu mice (1 × 10^7 cells /body). The animals were randomized and administered with the compound for 14 days. Antitumor activity and body weight change were evaluated as previously reported. Dunnett test using the SAS software package in EXSUS (CAC Croit) was used to compare the tumor volume (P < 0.05).

Assay [1] addresses T2, RNR (R1 and R2 recombinant proteins) (Homo sapiens, UniProt P23921).
T2 construct: made in house; host or cells: Escherichia coli
T2 sequence (P23921 1-792): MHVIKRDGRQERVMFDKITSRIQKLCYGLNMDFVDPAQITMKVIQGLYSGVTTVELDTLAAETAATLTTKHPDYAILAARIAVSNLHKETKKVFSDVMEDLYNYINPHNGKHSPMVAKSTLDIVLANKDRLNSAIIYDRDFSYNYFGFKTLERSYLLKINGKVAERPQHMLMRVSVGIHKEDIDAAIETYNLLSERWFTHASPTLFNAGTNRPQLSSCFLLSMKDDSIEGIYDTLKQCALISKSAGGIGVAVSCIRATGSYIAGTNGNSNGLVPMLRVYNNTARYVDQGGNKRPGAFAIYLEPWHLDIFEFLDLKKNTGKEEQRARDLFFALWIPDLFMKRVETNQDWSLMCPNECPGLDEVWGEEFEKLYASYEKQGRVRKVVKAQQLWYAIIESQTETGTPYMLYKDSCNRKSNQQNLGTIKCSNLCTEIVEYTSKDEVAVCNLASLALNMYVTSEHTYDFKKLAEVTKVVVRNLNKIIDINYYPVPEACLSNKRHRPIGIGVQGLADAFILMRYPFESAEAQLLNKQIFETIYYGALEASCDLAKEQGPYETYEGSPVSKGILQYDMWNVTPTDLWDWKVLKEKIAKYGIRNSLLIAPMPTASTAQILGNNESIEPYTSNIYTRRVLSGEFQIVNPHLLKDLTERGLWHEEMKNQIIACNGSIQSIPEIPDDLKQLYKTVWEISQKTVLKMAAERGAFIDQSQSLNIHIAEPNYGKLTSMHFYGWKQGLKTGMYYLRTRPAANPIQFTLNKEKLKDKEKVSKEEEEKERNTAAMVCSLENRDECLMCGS
Nature of the assay: RNR assay (formation of dCDP from CDP). The assay is classed as biochemical. As to the method: The binding affinity of TAS1553 to the R1 subunit was investigated using surface plasmon resonance (SPR) binding analysis. […] Next, we evaluated the inhibitory effect of TAS1553 against the enzymatic activity of RNR, consisting of R1 and R2 recombinant proteins. RNR activity was determined by its ability to reduce cytidine diphosphate (CDP) to deoxycytidine diphosphate (dCDP), based on a previous report. […] In addition to the inhibitory effect on RNR, TAS1553 was evaluated in a Eurofins LeadProfilingScreen panel assay including 68 proteins, such as ion channels, transporters, nuclear receptors, and G protein-coupled receptors, to examine its potential adverse activity.
The inhibition of RNR activity by the test compound was evaluated by measuring the formation of dCDP from CDP, as reported previously. The assay was performed for 30 min at 37 °C in a reaction mixture composed of 50 mmol/L HEPES, 4 mmol/L magnesium acetate, 100 mmol/L KCl, 6 mmol/L DTT, 2 mmol/L ATP, 0.24 mmol/L NADPH, 10.0 µmol/L CDP, 0.1 mg/mL BSA, 8.0 µg/mL His-R1, 2.4 µg/mL His-R2, and 1% DMSO with or without test compound. The reaction was discontinued by heat treatment at 95 °C for 5 min. The amount of dCDP after the reaction was quantified by a prominence HPLC system and LabSolutions software (SHIMADZU CORPORATION). Separations were performed at 265 nm in a Shim-pack XR-ODS column of particle size 2.2 μm (100 × 3.0 mm, SHIMADZU GLC Ltd.). Overall, 5 µL of each sample was injected, and chromatography was performed at 40 °C. Mobile A was composed of 10 mmol/L potassium dihydrogenphosphate, 10 mmol/L tetrabutylammonium hydroxide, 0.25% methanol and 8 mmol/L HCl. Mobile B was composed of 50 mmol/L potassium dihydrogenphosphate, 5.6 mmol/L tetrabutylammonium hydroxide, and 30% methanol. The gradient was as follows: 52–60% B for 9 min, 60–99% B for 1 min, 99% B for 5 min, 99–52% B for 1 min, and 52% B for 5 min. The flow rate was 0.5 mL/min. The experiment was performed in triplicates. IC50 values were calculated using the SAS software package.

Assay [2] addresses T3, 6x His-tagged recombinant human R1 (RRM1) (human, UniProt P23921 1-792).
T3 construct: also called His-R1; hRRM1
T3 sequence (looked up): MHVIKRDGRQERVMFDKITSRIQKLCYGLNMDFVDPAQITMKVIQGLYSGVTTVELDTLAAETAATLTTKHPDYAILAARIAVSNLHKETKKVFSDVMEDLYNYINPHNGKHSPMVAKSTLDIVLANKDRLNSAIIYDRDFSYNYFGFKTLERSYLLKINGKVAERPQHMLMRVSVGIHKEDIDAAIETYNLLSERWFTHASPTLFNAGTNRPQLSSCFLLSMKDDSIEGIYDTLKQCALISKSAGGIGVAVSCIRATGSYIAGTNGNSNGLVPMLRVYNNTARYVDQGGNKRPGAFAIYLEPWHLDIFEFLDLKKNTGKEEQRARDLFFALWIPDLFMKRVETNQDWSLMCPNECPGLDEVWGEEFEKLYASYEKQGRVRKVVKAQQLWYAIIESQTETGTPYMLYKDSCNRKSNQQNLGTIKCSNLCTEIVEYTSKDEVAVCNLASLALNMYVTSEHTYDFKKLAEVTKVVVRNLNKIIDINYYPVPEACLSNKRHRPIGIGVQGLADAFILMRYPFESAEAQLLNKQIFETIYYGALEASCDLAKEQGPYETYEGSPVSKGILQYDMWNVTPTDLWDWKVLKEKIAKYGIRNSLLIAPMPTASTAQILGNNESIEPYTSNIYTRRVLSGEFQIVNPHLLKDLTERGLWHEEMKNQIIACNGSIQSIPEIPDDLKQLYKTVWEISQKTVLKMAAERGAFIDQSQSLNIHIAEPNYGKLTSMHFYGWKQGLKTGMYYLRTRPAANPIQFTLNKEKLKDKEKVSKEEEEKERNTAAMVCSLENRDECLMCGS
The assay can be described thus: fluorescence polarisation; competition: 10 nmol/L TAMRA-P7 probe, 32 ng/mL His-R1, with or without test compound; 50 mmol/L Tris-Cl pH 8.0, 10 mmol/L DTT, 1% DMSO; 120 min, room temperature. The following applies: both partners purified.

Assay [3] concerns the target T3, 6x His-tagged recombinant human R1 …. Nature of the assay: AlphaScreen or HTRF; AlphaLISA: 4.3 ug/mL His-R1 (Nickel Chelate Acceptor beads), 3.3 ug/mL GST-R2 (Glutathione Donor beads), with or without test compound; 50 mmol/L HEPES, 4 mmol/L magnesium acetate, 100 mmol/L KCl, 6 mmol/L DTT, 2 mmol/L ATP, 0.24 mmol/L NADPH, 0.010 mmol/L CDP, 0.1 vol% polysorbate 20, 1 vol% DMSO; 60 min, room temperature. The following applies: both partners purified.

With `C[C@H](c1cccc2ccccc12)[C@H](NS(=O)(=O)c1ccc(Br)cc1)c1n[nH]c(=O)o1` [compound 1, 4-bromo-N-[(1S,2R)-2-(naphthalen-1-yl)-1-(5-oxo-4,5-dihydro-1,3,4-oxadiazol-2-yl)propyl]benzenesulfonamide], the “potency relative to Fmoc-L-phenylalanine (binding inhibition)” value on human R1 (FP binding IC50 ratio) is listed as ~ 2000 fold. The IC50 (as a rule, the point on the concentration scale where inhibition reaches its midpoint) at human R1 (R1 and TAMRA-labeled P7, mean ± SD, three independent experiments, read-out: IC50, fluorescent polarization binding assay) turned out to be 0.527 ± 0.021 µM. Regarding `Nc1ccn([C@@H]2O[C@H](CO)[C@@H](O)[C@@H]2O)c(=O)n1` [cytarabine, reference compound], the T/C ratio with MV-4-11 xenograft was 77.4%.

Take `CC(=O)O[C@H]1C(=O)[C@@]2(C)[C@H]([C@H](OC(=O)c3ccccc3)[C@]3(O)C[C@H](OC(=O)[C@H](O)[C@@H](NC(=O)c4ccccc4)c4ccccc4)C(C)=C1C3(C)C)[C@]1(OC(C)=O)CO[C@@H]1C[C@@H]2O` [paclitaxel]: the T/C ratio in the assay on HCC38 xenograft turned out to be 63.6%. Regarding Ac-FTLDADF [P7, N-AcFTLDADF], the IC50 in assay [1] came out at 14.5 ± 1 µM.

B1: TAMRA-labeled P7 peptide (peptide)
peptide: FTLDADF
modifications: also: TAMRA label, site not given here
notes: also called TAMRA-P7; fluorescence tagged P7; source: synthetic peptide; bought: Peptide Institute, Inc
Take B1: the binding result in assay [2] is reported as “binds”.

B2: P7 heptapeptide (N-AcFTLDADF) (peptide)
peptide: Ac-FTLDADF
notes: also called unlabeled P7; P7 peptide; source: synthetic peptide; bought: Peptide Institute, Inc
On to B2, for which the IC50 in assay [2] was found to be 2.49 µM; in assay [3] it was 9.22 µM.
